Laboratory results as given in paper PMC4303209, “A novel phosphatidylinositol 3-kinase (PI3K) inhibitor directs a potent FOXO-dependent, p53-independent cell cycle arrest phenotype characterized by the differential induction of a subset of FOXO-regulated genes” (Breast Cancer Research : BCR, 2014).

Test system: MCF-7 breast cancer cells
Test: Microarray gene expression analysis (Agilent whole human genome 4 x 44K; compound vs DMSO, LIMMA log2 fold change)
Assay type: cell-based
[1] = MCF-7, 100nM, six hours, 1.5-fold expression change threshold

Cn1ncc2c(N3CCOCC3)nc(-c3cccc(O)c3)nc21 [ETP-45658]
ESCO1 log2FC (Gene 114799, cell cycle genes): 0.560
UHRF2 log2FC (Gene 115426, cell cycle genes): 0.500
KLHDC3 log2FC (Gene 116138, cell cycle genes): -0.048
CNTROB log2FC (Gene 116840, cell cycle genes): -0.102
NEDD1 log2FC (Gene 121441, cell cycle genes): 0.443
HEXIM2 log2FC (Gene 124790, cell cycle genes): 0.577
ARL8A log2FC (Gene 127829, cell cycle genes): 0.446
UHMK1 log2FC (Gene 127933, cell cycle genes): -0.099
IQGAP3 log2FC (Gene 128239, cell cycle genes): 0.155
NUP35 log2FC (Gene 129401, cell cycle genes): -0.169
MITD1 log2FC (Gene 129531, cell cycle genes): 0.836
NUDT16 log2FC (Gene 131870, cell cycle genes): -0.327
ZFP42 log2FC (Gene 132625, cell cycle genes): 0.031
JMY log2FC (Gene 133746, cell cycle genes): 1.016
HUS1B log2FC (Gene 135458, cell cycle genes): -0.791
NEK7 log2FC (Gene 140609, cell cycle genes): 0.053
CTCFL log2FC (Gene 140690, cell cycle genes): -0.021
PSMA8 log2FC (Gene 143471, cell cycle genes): 0.068
SESN3 log2FC (Gene 143686, cell cycle genes): 0.057
PIWIL4 log2FC (Gene 143689, cell cycle genes): 0.405
E2F7 log2FC (Gene 144455, cell cycle genes): -0.474
RAD9B log2FC (Gene 144715, cell cycle genes): 0.061
KCTD11 log2FC (Gene 147040, cell cycle genes): 0.142
PYHIN1 log2FC (Gene 149628, cell cycle genes): -0.052
PPP1R1C log2FC (Gene 151242, cell cycle genes): 0.132
SGOL2 log2FC (Gene 151246, cell cycle genes): 0.811
SGOL1 log2FC (Gene 151648, cell cycle genes): 0.489
ROPN1B log2FC (Gene 152015, cell cycle genes): 0.058
DAB2IP log2FC (Gene 153090, cell cycle genes): -0.220
CDCA2 log2FC (Gene 157313, cell cycle genes): 0.547
ESCO2 log2FC (Gene 157570, cell cycle genes): 0.730
SASS6 log2FC (Gene 163786, cell cycle genes): 0.483
WBP2NL log2FC (Gene 164684, cell cycle genes): -0.063
THAP5 log2FC (Gene 168451, cell cycle genes): 0.256
FLCN log2FC (Gene 201163, cell cycle genes): 0.968
STRA13 log2FC (Gene 201254, cell cycle genes): -0.358
TUBB log2FC (Gene 203068, cell cycle genes): -0.709
REEP3 log2FC (Gene 221035, cell cycle genes): -0.240
C6orf89 log2FC (Gene 221477, cell cycle genes): -0.508
SPDYA log2FC (Gene 245711, cell cycle genes): -0.071
CDC26 log2FC (Gene 246184, cell cycle genes): -0.688
ASPM log2FC (Gene 259266, cell cycle genes): 1.100
SLC39A5 log2FC (Gene 283375, cell cycle genes): -0.022
GAS2L3 log2FC (Gene 283431, cell cycle genes): 0.617
NSMCE2 log2FC (Gene 286053, cell cycle genes): 1.151
LIN9 log2FC (Gene 286826, cell cycle genes): 1.274
TMPRSS11A log2FC (Gene 339967, cell cycle genes): 0.046
NUP43 log2FC (Gene 348995, cell cycle genes): 0.749
APITD1 log2FC (Gene 378708, cell cycle genes): 0.144
SETD8 log2FC (Gene 387893, cell cycle genes): 0.093
PIM3 log2FC (Gene 415116, cell cycle genes): 0.693
PIWIL3 log2FC (Gene 440822, cell cycle genes): -0.066
expression of FOXO-dependent apoptosis genes including TNFSF10, BCL211 and FASLG (array) (MCF-7): did not significantly change
number of induced (upregulated) genes [1]: 1,549
number of repressed (downregulated) genes [1]: 989
CCND1, SPRY2 and MMP9 expression (array) (MCF-7, FOXO target genes): significantly downregulated
expression of CCNG2, KLHL24, DDIT3, CITED2 and RICTOR (array) (MCF-7, FOXO target genes): significantly upregulated
bound FOXO sites (transcription factor enrichment analysis) (MCF-7, upregulated genes): highly significant increase
MAD1L1 log2FC (cell cycle genes): -0.032
ACSL5 log2FC (gene ACSL5 (51703), apoptosis genes): 0.011
log2FC (gene ACTR1A (Gene 10121), cell cycle genes): -0.180
ADAMTS20 log2FC (gene ADAMTS20 (80070), apoptosis genes): 0.014
ADIPOQ log2FC (gene ADIPOQ (9370), apoptosis genes): 0.013
ADRA1A log2FC (gene ADRA1A (148), apoptosis genes): 0.060
AGTR2 log2FC (gene AGTR2 (186), apoptosis genes): 0.004
log2FC AKAP8 (gene AKAP8 (Gene 10270), cell cycle genes): -0.037
ALB log2FC (gene ALB (213), apoptosis genes): -0.050
ALOX12 log2FC (gene ALOX12 (239), apoptosis genes): 0.083
ALX3 log2FC (gene ALX3 (257), apoptosis genes): -0.018
ALX4 log2FC (gene ALX4 (60529), apoptosis genes): -0.043
log2FC (gene ANAPC13 (Gene 25847), cell cycle genes): -0.342
ANKRD13C log2FC (gene ANKRD13C (81573), apoptosis genes): 0.077
APBB1 log2FC (gene APBB1 (322), apoptosis genes): 0.078
APOH log2FC (gene APOH (350), apoptosis genes): -0.009
AQP1 log2FC (gene AQP1 (358), apoptosis genes): -0.015
ARHGAP10 log2FC (gene ARHGAP10 (79658), apoptosis genes): -0.010
ARHGEF6 log2FC (gene ARHGEF6 (9459), apoptosis genes): -0.041
ARHGEF16 log2FC (gene ARHGEF16 (27237), apoptosis genes): 0.078
ARHGEF18 log2FC (gene ARHGEF18 (23370), apoptosis genes): -0.051
ATOH1 log2FC (gene ATOH1 (474), apoptosis genes): -0.034
ATPIF1 log2FC (gene ATPIF1 (93974), apoptosis genes): 0.069
log2FC (gene ATR (Gene 545), cell cycle genes): 0.346
log2FC (gene BAD (Gene 572), cell cycle genes): 0.276
BCL2L10 log2FC (gene BCL2L10 (10017), apoptosis genes): -0.024
BDKRB2 log2FC (gene BDKRB2 (624), apoptosis genes): 0.060
BIRC2 log2FC (gene BIRC2 (329), apoptosis genes): 0.082
BIRC8 log2FC (gene BIRC8 (112401), apoptosis genes): -0.014
BMP2 log2FC (gene BMP2 (650), apoptosis genes): -0.038
log2FC (gene BMP4 (Gene 652), cell cycle genes): 0.407
BMP5 log2FC (gene BMP5 (653), apoptosis genes): 0.022
BOK log2FC (gene BOK (666), apoptosis genes): -0.021
log2FC (gene BRE (Gene 9577), cell cycle genes): -0.322
BTK log2FC (gene BTK (695), apoptosis genes): -0.064
log2FC (gene BUB1B (Gene 701), cell cycle genes): 0.344
C1QBP log2FC (gene C1QBP (708), apoptosis genes): 0.052
C3orf38 log2FC (gene C3orf38 (285237), apoptosis genes): -0.027
log2FC (gene CAMK2B (Gene 816), cell cycle genes): -0.123
CAPN3 log2FC (gene CAPN3 (825), apoptosis genes): 0.007
log2FC CAPN3 (gene CAPN3 (Gene 825), cell cycle genes): 0.007
CARD9 log2FC (gene CARD9 (64170), apoptosis genes): -0.027
CARD14 log2FC (gene CARD14 (79092), apoptosis genes): 0.026
log2FC (gene CASP3 (Gene 836), cell cycle genes): 0.546
CASP10 log2FC (gene CASP10 (843), apoptosis genes): -0.013
CASP12 log2FC (gene CASP12 (120329), apoptosis genes): 0.004
CCK log2FC (gene CCK (885), apoptosis genes): -0.026
CCL19 log2FC (gene CCL19 (6363), apoptosis genes): -0.021
log2FC (gene CCNB2 (Gene 9133), cell cycle genes): 0.253
log2FC (gene CCNH (Gene 902), cell cycle genes): 0.426
log2FC (gene CCNT2 (Gene 905), cell cycle genes): 0.221
CD38 log2FC (gene CD38 (952), apoptosis genes): -0.014
CD40LG log2FC (gene CD40LG (959), apoptosis genes): -0.031
CD248 log2FC (gene CD248 (57124), apoptosis genes): -0.012
log2FC (gene CDC73 (Gene 79577), cell cycle genes): 0.443
CDH1 log2FC (gene CDH1 (999), apoptosis genes): 0.047
log2FC CDH13 (gene CDH13 (Gene 1012), cell cycle genes): -0.017
log2FC CDK2AP1 (gene CDK2AP1 (Gene 8099), cell cycle genes): -0.041
CDK5 log2FC (gene CDK5 (1020), apoptosis genes): -0.089
log2FC CDK5RAP1 (gene CDK5RAP1 (Gene 51654), cell cycle genes): 0.018
log2FC CDKN2B (gene CDKN2B (Gene 1030), cell cycle genes): 0.013
log2FC (gene CENPJ (Gene 55835), cell cycle genes): 0.293
log2FC (gene CENPK (Gene 64105), cell cycle genes): 0.519
log2FC (gene CETN3 (Gene 1070), cell cycle genes): 0.369
log2FC (gene CHEK2 (Gene 11200), cell cycle genes): 0.312
CHIA log2FC (gene CHIA (27159), apoptosis genes): -0.023
CIDEA log2FC (gene CIDEA (1149), apoptosis genes): -0.026
CLC log2FC (gene CLC (1178), apoptosis genes): -0.009
CLEC5A log2FC (gene CLEC5A (23601), apoptosis genes): -0.012
CLSPN log2FC (gene CLSPN (63967), apoptosis genes): 0.066
CNTFR log2FC (gene CNTFR (1271), apoptosis genes): -0.014
COL2A1 log2FC (gene COL2A1 (1280), apoptosis genes): 0.036
COL4A3 log2FC (gene COL4A3 (1285), apoptosis genes): 0.173
COMP log2FC (gene COMP (1311), apoptosis genes): -0.018
log2FC (gene COPS5 (Gene 10987), cell cycle genes): 0.503
log2FC (gene CRLF3 (Gene 51379), cell cycle genes): 0.438
log2FC (gene CSNK2B (Gene 1460), cell cycle genes): -0.263
CST3 log2FC (gene CST3 (1471), apoptosis genes): -0.001
CTLA4 log2FC (gene CTLA4 (1493), apoptosis genes): -0.015
CXCR4 log2FC (gene CXCR4 (7852), apoptosis genes): -0.044
CYR61 log2FC (gene CYR61 (3491), apoptosis genes): -0.093
DAPK2 log2FC (gene DAPK2 (23604), apoptosis genes): 0.127
DAXX log2FC (gene DAXX (1616), apoptosis genes): 0.003
log2FC DAXX (gene DAXX (Gene 1616), cell cycle genes): 0.003
log2FC (gene DCLRE1B (Gene 64858), cell cycle genes): -0.240
log2FC (gene DDX11 (Gene 1663), cell cycle genes): -0.382
DDX47 log2FC (gene DDX47 (51202), apoptosis genes): 0.072
DEDD2 log2FC (gene DEDD2 (162989), apoptosis genes): 0.036
DFFB log2FC (gene DFFB (1677), apoptosis genes): -0.039
log2FC (gene DIAPH2 (Gene 1730), cell cycle genes): 0.484
log2FC DIRAS3 (gene DIRAS3 (Gene 9077), cell cycle genes): 0.0064
DMPK log2FC (gene DMPK (1760), apoptosis genes): -0.105
DNM2 log2FC (gene DNM2 (1785), apoptosis genes): -0.047
DPF1 log2FC (gene DPF1 (8193), apoptosis genes): -0.079
log2FC ECD (gene ECD (Gene 11319), cell cycle genes): -0.009
EGR3 log2FC (gene EGR3 (1960), apoptosis genes): -0.131
EGR4 log2FC (gene EGR4 (1961), apoptosis genes): -0.00345
ELMO1 log2FC (gene ELMO1 (9844), apoptosis genes): 0.077
EPB41L3 log2FC (gene EPB41L3 (23136), apoptosis genes): -0.033
